The source of these data is article PMC9273884, “Responsive Fluorescent Coumarin–Cinnamic Acid Conjugates for α-Glucosidase Detection” (Frontiers in Chemistry, 2022).

Data set [1] has as its target T1, α-Glucosidase from Saccharomyces cerevisiae (EC 3.2.1.20) (Saccharomyces cerevisiae, UniProt P53341).
T1 construct: purchased Sigma-Aldrich
In words: α-Glucosidase inhibition efficiency test (PNPG substrate, absorbance at 405 nm). The following applies: 0.1 U/mL enzyme, 1 mmol/L PNPG, 37°C, triplicate mean; read-out: IC50 against α-glucosidase. It counts as biochemical.
Method: All chemicals and solvents were obtained from commercial suppliers without further purification. α-Glucosidase from Saccharomyces cerevisiae (EC 3.2.1.20) was purchased from Sigma-Aldrich. p-Nitrophenyl-α-D-galactopyranoside (PNPG) was obtained from Abcam.
Stock solutions of testing compounds were prepared in DMSO. Enzyme solution of α-glucosidase (2 U/mL) was prepared in 0.1 M PBS buffer. Nitrophenol-α-D-glucoside (PNPG) was dissolved in 0.1 M PBS buffer (pH 6.8) to obtain the substrate solution (4 mM). In total, 10 μL of α-glucosidase (final concentration 0.1 U/mL), 130 μL of PBS buffer, and 10 μL of the sample solution were added into 96-well plates in succession and incubated at 37°C for 10 min. Then 50 μL of substrate solution (PNPG final concentration 1 mmol/L) was added, followed by incubation at 37°C for another 30 min. The enzymatic activity was quantified by measuring the absorbance of the reaction mixture at 405 nm using a multimodel reader. The inhibition rate was calculated using the following equation: Inhibition rate (%) = [(A1−A0)/A0] × 100%, where A1 and A0 are the absorbance values of testing samples and blank control, respectively. The IC50 value was obtained from a plot of the inhibition rate versus the sample concentration curve. The assays were carried out in triplicate and the mean values were given.

The target in data set [2] is T2, α-glucosidase (Saccharomyces cerevisiae, UniProt P53341).
T2 construct: purchased Sigma-Aldrich
In words: Fluorescence titration of the probes with α-glucosidase. The following applies: for increase of maximum emission intensity on addition of α-glucosidase: 3.5 μM α-glucosidase, PBS buffer. It counts as binding. How it is done:
(§1) All chemicals and solvents were obtained from commercial suppliers without further purification. α-Glucosidase from Saccharomyces cerevisiae (EC 3.2.1.20) was purchased from Sigma-Aldrich. p-Nitrophenyl-α-D-[…] (PNPG) was obtained from Abcam. Nuclear magnetic resonance (NMR) spectra of new compounds were recorded in DMSO-d 6 using a Bruker Advance 500 MHz spectrometer. High-resolution mass spectrometry (HRMS) was measured on a Thermo Fisher Scientific Q Exactive Orbitrap mass spectrometer. UV–Vis absorption spectra were measured using an Hitachi 3,900 absorption spectrophotometer (Tokyo, Japan). Fluorescence spectra were recorded using an Edinburgh FLS1000 fluorescence spectrophotometer (Edinburgh, UK).
α-Glucosidase protein was titrated to the solution of the testing probe (LD01 or LD02) (10 μM), and the fluorescence emission spectra were recorded from 380 to 700 nm under excitation of 365 nm. The binding constants of Ka were obtained from a double logarithm regression curve ([Wei et al., 2010]): 1g[(I−Io)/Io] = 1gKa + n 1g[G],
where I and I0 are the current and initial fluorescence intensity, respectively, K a is the binding constant, n is the number of binding sites for each α-glucosidase, and [G] is the total concentration of the α-glucosidase protein.

The target in data set [3] is T2, α-glucosidase. Description: Fluorescence competitive binding assay against α-glucosidase/LD02 complex. How it is done: as §1
The binding complexes of α-glucosidase with LD02 were prepared by adding α-glucosidase (final concentration = 3.5 μM) to the solution of LD02 (10 μM) in 10 mM PBS buffer (pH = 7.4). The dissociation constant of a competitor to α-glucosidase can be determined by titrating it against binding complexes of α-glucosidase with LD02, and can be calculated according to the Cheng–Prusoff equation ([Cheng and Prusoff, 1973]).

A short description of data set [4]: pH-dependent emission (pKa by Henderson-Hasselbalch equation). It counts as physicochemical. Conditions: from emission spectra in PBS buffer pH 3.0 to 8.0, room temperature. As to the method:
The emission spectra of the probes in PBS buffer (pH from 3.0 to 8.0) were determined at room temperature. The pKa value was calculated using the Henderson–Hosslbalch equation ([Finikova et al., 2003]): pH = pKa + lg ([A]/[HA]).

Data set [5] deals with glucose oxidase (GOD), polyphenol oxidase (TKY), pepsin (PEP), Cys, GSH, Lys, Ca2+, Cu2+, Fe3+, Mg2+, Zn2+. In words: Binding selectivity of LD02: emission in the presence of potential competitors. Conditions: 10 μM LD02; enzymes 3.5 μM, small molecules and ions 1 mM; 10 mM PBS pH 7.4. How it is done: To verify the binding specificity of LD02 toward α-glucosidase, emission spectra of LD02 in the presence of α-glucosidase or various potential competitors such as other enzymes (including glucose oxidase (GOD), polyphenol oxidase (TKY), and pepsin (PEP)), and small molecules of interest (including Cys, GSH, Lys, Ca^2+, Cu^2+, Fe^3+, Mg^2+, and Zn^2+), were collected in 10 mM PBS buffer (pH = 7.4) at room temperature.
FIGURE 5 (A) Fluorescence spectra of LD02 (10 μM) in the presence of various species: α-glucosidase (α-Glu) (3.5 μM), GOD (3.5 μM), TKY (3.5 μM), PEP (3.5 μM), Cys (1 mM), GSH (1 mM), Lys (1 mM), Ca^2+ (1 mM), Cu^2+ (1 mM), Fe^3+ (1 mM), Mg^2+ (1 mM), and Zn^2+ (1 mM) in PBS buffer. (B) The plot of (I-I0)/I0 in A (λex = 365 nm, λem = 457 nm).

“Also recorded” adds a separate entry of the source.

T2 sequence (P53341 whole entry): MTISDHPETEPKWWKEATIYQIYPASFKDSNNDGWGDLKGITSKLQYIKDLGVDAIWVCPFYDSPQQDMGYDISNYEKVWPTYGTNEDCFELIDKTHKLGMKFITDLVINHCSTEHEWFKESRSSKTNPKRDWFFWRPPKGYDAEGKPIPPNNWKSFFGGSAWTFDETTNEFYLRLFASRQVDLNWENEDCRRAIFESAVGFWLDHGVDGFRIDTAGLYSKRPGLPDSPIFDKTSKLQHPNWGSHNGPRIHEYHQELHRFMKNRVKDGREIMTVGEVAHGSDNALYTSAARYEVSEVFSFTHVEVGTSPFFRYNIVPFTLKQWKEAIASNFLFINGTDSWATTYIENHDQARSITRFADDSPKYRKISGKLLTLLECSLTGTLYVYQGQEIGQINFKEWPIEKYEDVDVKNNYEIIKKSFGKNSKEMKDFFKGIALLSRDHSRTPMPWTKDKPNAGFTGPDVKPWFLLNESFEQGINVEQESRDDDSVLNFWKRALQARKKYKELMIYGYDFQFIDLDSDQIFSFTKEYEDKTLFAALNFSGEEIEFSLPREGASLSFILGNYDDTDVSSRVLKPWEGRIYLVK
T1 sequence (P53341 whole entry): as above

In the case of `CCN(CC)c1ccc2cc(/C(C)=N/OC(=O)/C=C/c3ccc(Br)cc3)c(=O)oc2c1` [LD01], in data set [1], the IC50 was found to be 4.6 ± 0.5 µM. Besides, at α-glucosidase [2] (10 μM probe), the “increase of maximum emission intensity on addition of α-glucosidase” value is given as “no obvious emission changes; also recorded: does not have such changes”. This compound also gave a Kd on α-glucosidase [3] of 6.31 µM. The compound further came in with a pKa in data set [4] of 4.2.
In the case of `C/C(=N\OC(=O)/C=C/c1ccc(N(C)C)cc1)c1cc2ccccc2oc1=O` [LD02], the IC50 in data set [1] was 32.5 ± 0.8 µM. On α-glucosidase [2], this compound had a Kd of 158 µM. The “increase of maximum emission intensity on addition of α-glucosidase” value on α-glucosidase [2] (10 μM probe) stood at 2.7 times. Besides, at α-glucosidase [2] (double logarithm regression, 10 μM probe, PBS), the “binding ratio (n, number of binding sites) to α-glucosidase” value is on record as “approximately 0.5”. This compound registered a pKa in data set [4] of 4.6. The “effect of potential competitors on emission band and intensity (selectivity toward α-glucosidase)” value in data set [5] is “no obvious effect”.
